We go through seven molecules from ChEMBL document CHEMBL5584255, “Synthesis and antibacterial medicinal evaluation of carbothioamido hydrazonyl thiazolylquinolone with multitargeting antimicrobial potential to combat increasingly global resistance” (Eur J Med Chem, 2024).

By MIC is commonly meant the least concentration at which growth counts as inhibited. High values mean a less susceptible organism, low ones a more susceptible organism.

≈ marks a conversion by molar mass, not a printed value.

What all share (format): functional
Assay [1] concerns Staphylococcus aureus. The assay is described as follows: Antibacterial activity against Staphylococcus aureus ATCC 25923 by microbroth dilution method.
Assay [2] relates to Candida tropicalis. Kind of assay: Antifungal activity against drug-resistant Candida tropicalis.
Assay [3] relates to Klebsiella pneumoniae. Kind of assay: Antibacterial activity against Klebsiella pneumoniae by microbroth dilution method. Background: Broth dilution looks for growth in wells or tubes with falling amounts of substance.
The subject of assay [4] is Staphylococcus aureus. Kind of assay: Antibacterial activity against drug-resistant Staphylococcus aureus by microbroth dilution method.
In assay [5] the test system is Candida albicans. Kind of assay: Antifungal activity against Candida albicans ATCC 90023.
For assay [6], the system named is Staphylococcus aureus. The assay is described as follows: Antibacterial activity against methicillin-resistant Staphylococcus aureus N315 by microbroth dilution method.
For assay [7], the system named is Escherichia coli. The assay is described as follows: Antibacterial activity against drug-resistant Escherichia coli by microbroth dilution method.
The test system of assay [8] is Staphylococcus aureus. The assay is described as follows: Antibacterial activity against Staphylococcus aureus ATCC 29213 by microbroth dilution method.
Assay [9] relates to Candida parapsilosis. Kind of assay: Antifungal activity against Candida parapsilosis ATCC 22019. The following applies: Lodderomyces parapsilosis.
The test system of assay [10] is Aspergillus fumigatus. Kind of assay: Antifungal activity against Aspergillus fumigatus.
For assay [11], the system named is Pseudomonas aeruginosa. The assay is described as follows: Antibacterial activity against Pseudomonas aeruginosa ATCC 27853 by microbroth dilution method.
Assay [12] concerns Candida albicans. The assay is described as follows: Antifungal activity against drug-resistant Candida albicans.
The test system of assay [13] is Escherichia coli. The assay is described as follows: Antibacterial activity against Escherichia coli ATCC 25922 by microbroth dilution method.
In assay [14] the test system is Pseudomonas aeruginosa. The assay is described as follows: Antibacterial activity against Pseudomonas aeruginosa by microbroth dilution method.
Assay [15] deals with Acinetobacter baumannii. The assay is described as follows: Antibacterial activity against Acinetobacter baumannii by microbroth dilution method.
For assay [16], the system named is Enterococcus faecalis. Kind of assay: Antibacterial activity against drug-resistant Enterococcus faecalis by microbroth dilution method.

Regarding `Nc1nc(-c2c[nH]c3c(F)cccc3c2=O)cs1`, the MIC in assay [1] is 981 µM (≈ 256 µg/mL); in assay [2], 981 µM (≈ 256 µg/mL); in [3], 981 µM (≈ 256 µg/mL); in [4], 981 µM (≈ 256 µg/mL); in assay [5] it was 490 µM (≈ 128 µg/mL); in assay [6] it was 981 µM (≈ 256 µg/mL). Besides, the MIC was 981 µM (≈ 256 µg/mL) in assay [7]; 981 µM (≈ 256 µg/mL) in [8]; 245 µM (≈ 64 µg/mL) in assay [9]; 490 µM (≈ 128 µg/mL) in [10]; 981 µM (≈ 256 µg/mL) in [11]; 981 µM (≈ 256 µg/mL) in assay [12]. In addition, the MIC is 981 µM (≈ 256 µg/mL) in [13], 981 µM (≈ 256 µg/mL) in assay [14], 490 µM (≈ 128 µg/mL) in [15] and 490 µM (≈ 128 µg/mL) in [16].
As to `C/C(Cn1cc(-c2csc(C)n2)c(=O)c2cc(F)c(Cl)cc21)=N\NC(N)=S`, the MIC in assay [1] turned out to be 605 µM (≈ 256 µg/mL); in [2] it was 303 µM (≈ 128 µg/mL); in [3], 605 µM (≈ 256 µg/mL); in [4], 605 µM (≈ 256 µg/mL); in assay [5] it was 605 µM (≈ 256 µg/mL); in [6] it was 605 µM (≈ 256 µg/mL). In addition, the MIC in assay [7] was 605 µM (≈ 256 µg/mL); in assay [8] it was 605 µM (≈ 256 µg/mL); in [9], 605 µM (≈ 256 µg/mL); in assay [10], 1210 µM (≈ 513 µg/mL); in assay [11], 303 µM (≈ 128 µg/mL); in [12] it was 605 µM (≈ 256 µg/mL). Moreover, the MIC in assay [13], in assay [14], in assay [15] and in assay [16] was 605 µM (≈ 256 µg/mL) throughout.
Consider `CC(=O)Cn1cc(-c2csc(N)n2)c(=O)c2cc(F)c(Cl)cc21`, for which the MIC in assay [1] turned out to be 182 µM (≈ 64 µg/mL); in assay [2], 365 µM (≈ 128 µg/mL); in assay [3] it was 729 µM (≈ 256 µg/mL); in assay [4] it was 182 µM (≈ 64 µg/mL); in assay [5], 91 µM (≈ 32 µg/mL); in assay [6], 365 µM (≈ 128 µg/mL). Further, the minimal inhibitory concentration (MIC) is 729 µM (≈ 256 µg/mL) in [7]; 365 µM (≈ 128 µg/mL) in assay [8]; 182 µM (≈ 64 µg/mL) in [9]; 365 µM (≈ 128 µg/mL) in [10]; 91 µM (≈ 32 µg/mL) in [11]; 91 µM (≈ 32 µg/mL) in assay [12]. The MIC in assay [13] is 182 µM (≈ 64 µg/mL); in assay [14], 91 µM (≈ 32 µg/mL); in assay [15], 365 µM (≈ 128 µg/mL); in assay [16] it was 365 µM (≈ 128 µg/mL).
In the case of `CC(=O)Cn1cc(-c2csc(C)n2)c(=O)c2cc(F)c(Cl)cc21`, the MIC in assay [1] amounted to 366 µM (≈ 128 µg/mL); in assay [2] it was 731 µM (≈ 256 µg/mL); in assay [3], 731 µM (≈ 256 µg/mL); in assay [4] it was 366 µM (≈ 128 µg/mL); in assay [5] it was 91 µM (≈ 31.9 µg/mL); in assay [6], 731 µM (≈ 256 µg/mL). In addition, the MIC in assay [7] was 731 µM (≈ 256 µg/mL); in [8], 366 µM (≈ 128 µg/mL); in assay [9], 366 µM (≈ 128 µg/mL); in [10], 731 µM (≈ 256 µg/mL); in assay [11], 366 µM (≈ 128 µg/mL); in assay [12] it was 366 µM (≈ 128 µg/mL). The MIC came out at 731 µM (≈ 256 µg/mL) in assay [13], 731 µM (≈ 256 µg/mL) in [14], 731 µM (≈ 256 µg/mL) in assay [15] and 366 µM (≈ 128 µg/mL) in [16].
On to `CC(=O)Cn1cc(-c2csc(N)n2)c(=O)c2cccc(F)c21`, for which the MIC was 404 µM (≈ 128 µg/mL) in assay [1]; 202 µM (≈ 64.1 µg/mL) in [2]; 404 µM (≈ 128 µg/mL) in assay [3]; 807 µM (≈ 256 µg/mL) in assay [4]; 404 µM (≈ 128 µg/mL) in [5]; 404 µM (≈ 128 µg/mL) in [6]. In addition, the MIC in assay [7] stood at 807 µM (≈ 256 µg/mL); in [8], 807 µM (≈ 256 µg/mL); in assay [9] it was 404 µM (≈ 128 µg/mL); in [10], 404 µM (≈ 128 µg/mL); in assay [11], 404 µM (≈ 128 µg/mL); in assay [12] it was 404 µM (≈ 128 µg/mL). Moreover, the MIC in assay [13] turned out to be 807 µM (≈ 256 µg/mL); in assay [14], 807 µM (≈ 256 µg/mL); in assay [15], 404 µM (≈ 128 µg/mL); in assay [16] it was 404 µM (≈ 128 µg/mL).
Consider `Cc1nc(-c2c[nH]c3cc(Cl)c(F)cc3c2=O)cs1`, for which the minimum inhibitory concentration (MIC) in assay [1] amounted to 435 µM (≈ 128 µg/mL); in assay [2] it was 871 µM (≈ 257 µg/mL); in assay [3], 871 µM (≈ 257 µg/mL); in assay [4], 871 µM (≈ 257 µg/mL); in assay [5], 109 µM (≈ 32.1 µg/mL); in assay [6], 435 µM (≈ 128 µg/mL). For the same molecule, the MIC in assay [7] is 1740 µM (≈ 513 µg/mL); in [8], 871 µM (≈ 257 µg/mL); in assay [9] it was 218 µM (≈ 64.3 µg/mL); in assay [10] it was 435 µM (≈ 128 µg/mL); in assay [11], 435 µM (≈ 128 µg/mL); in assay [12] it was 435 µM (≈ 128 µg/mL). The MIC in [13] stood at 435 µM (≈ 128 µg/mL); in [14], 871 µM (≈ 257 µg/mL); in [15], 435 µM (≈ 128 µg/mL); in assay [16] it was 871 µM (≈ 257 µg/mL).
As to `Cc1nc(-c2c[nH]c3c(F)cccc3c2=O)cs1`, the MIC in assay [1] was found to be 985 µM (≈ 256 µg/mL); in [2], 492 µM (≈ 128 µg/mL); in assay [3] it was 985 µM (≈ 256 µg/mL); in assay [4] it was 1970 µM (≈ 513 µg/mL); in assay [5], 985 µM (≈ 256 µg/mL); in [6], 1970 µM (≈ 513 µg/mL). Also, the MIC in [7] was 1970 µM (≈ 513 µg/mL); in [8], 1970 µM (≈ 513 µg/mL); in [9] it was 492 µM (≈ 128 µg/mL); in assay [10] it was 492 µM (≈ 128 µg/mL); in [11], 492 µM (≈ 128 µg/mL); in [12] it was 985 µM (≈ 256 µg/mL). Besides, the minimal inhibitory concentration (MIC) came to 985 µM (≈ 256 µg/mL) in assay [13], 985 µM (≈ 256 µg/mL) in assay [14], 492 µM (≈ 128 µg/mL) in [15] and 985 µM (≈ 256 µg/mL) in assay [16].
